Data from EP0260606A2, “Medicament for curing neurotic disturbance or disorder comprising sialocylglycerolipid” (MECT CORPORATION, priority 1986, dated 1988).
Several values for one entry are separate records, joined by “and”; a condition that tells them apart may be missing. Equal values may be shown once.

Tests used:
[1] = test system: neuroblastoma cell Neuro2a; assay: Effect on the neuroblastoma cell Neuro2a (formation and growth of axis-cylinder process); format: cell-based; details: for Length of Axis-cylinder Process / Number of Axis-cylinder Process: average ± S.E.
Procedure: The nervous cell used in the test was neuroblastoma cell Neuro2a which is readily available and can be cultured in a relatively simple manner.
Neuro2a was floated on a culture medium containing fetal cattle serum (hereinafter referred to as FCS), the culture medium consisting of 90% of Dubecco's Modified Eagle's Medium (hereinafter referred to as MEM) and l0% of FCS and added with l00 U/ml of penicillin G and l00 µg/ml of streptomycin sulfate, and cultured in a carbon dioxide cultivator at 37°C in an air containing 5% of carbon dioxide. The containers used were 60 mm polystyrene dishes, and each of the containers was incubated with l to 2 × l0⁴ cells followed by culturing for 48 hours prior to the test. […] After the lapse of 24 hours and 48 hours, the increase in cells formed with axis-cylinder process, the increase in number of axis-cylinder processes and the elongation of the length of the axis-cylinder process were measured.
The test was conducted while using three dishes for each concentration of each test material.

[2] = test system: rat having its nigral depaminergic neuron destroyed; assay: Methamphethamine-induced rotational movement after 6-hydroxydopamine lesion and fetal dopaminergic cell transplantation; format: in vivo; details: for Average of Rotational Movement of Rats (Average + S.D.): group average, 30 mg/kg; for Number of Rotational Movement of Rats: individual rat, 30 mg/kg every day for two weeks from transplantation, listed as Ganglioside GM1, 30 mg/kg
Description: The nigral dopaminergic neuron of the brain of a rat was chemically destroyed by injecting a very small quantity of 6-hydroxydopamine to cause motor disturbance.
After the lapse of two weeks, a fetal brain dopaminergic cell was transplanted on the Nucleus caudatus of the rat brain to try to remedy the motor disturbance.
The nigral depaminergic neuron at the left side of the brain of a female Wister family rat aged 4-weeks (Body Weight: l00 g) was destroyed by injecting a very small quantity of 6-hydroxydopamine.
After two weeks from the destruction by the administration of the drug, portions of the […] containing dopamin cells (i.e. substantia nigra and the Tegmentum at the abdomen side) were extracted from the fetal rat brain of a fetal rat of l4 to l7 days age, cut finely, and treated with trypsin. Then, the extracted tissues were incubated at 37°C for 30 minutes, and the tissues were subjected to pipetting to form a suspension. 5 µl each of the suspensions were transplanted on two sites of the Nucleus caudatus of the destructed side, the total of l0 µl (containing about l0⁵ cells) being transplanted.
The rotational movements caused by administration of methamphethamine were examined at the time point before 2 weeks of the transplantation (- 2W), at the time point before one week of the transplantation (- lW) and at the time point after two weeks of the transplantation (2W). The number of rotational movements within one minute were counted at l0 minute intervals after six administrations of methamphethamine, and the total number of rotational movements counted for the six times was averaged to find the mean rotational movement. As controls, the numbers of rotational movements of the rats administered, respectively, with a ganglioside mixture and GM₁ ganglioside were counted.

[3] = - 1W (before transplantation and dosing)
[4] = - 2W (before transplantation and dosing)

Substance: (NAcNeu(α2-8) NAcNeu(α2-3))-Gal(ßl-3)GalNAc(ßl-4)(NAcNeu(α2-8)NAcNeu(α-2-3))-Gal(ßl-4)Glc(ßl-l) [GQ1b]
- Number of Cells Formed with Axis-cylinder Process ([1]; 24 hours, 0.01 µg/ml): 174
- Ratio of Cells Formed with Axis-cylinder Process ([1]; 24 hours, 0.01 µg/ml): 51.8%
- Total Number of Cells ([1]; 24 hours, 0.01 µg/ml): 336
- Length of Axis-cylinder Process ([1]; 24 hours, 0.01 µg/ml): 88.5 ± 5.00 µm/cell
- Number of Axis-cylinder Process ([1]; 24 hours, 0.01 µg/ml): 1.3 ± 0.05 per cell
- Number of Cells Formed with Axis-cylinder Process ([1]; 24 hours, 0.1 µg/ml): 159
- Ratio of Cells Formed with Axis-cylinder Process ([1]; 24 hours, 0.1 µg/ml): 58.0%
- Total Number of Cells ([1]; 24 hours, 0.1 µg/ml): 331
- Length of Axis-cylinder Process ([1]; 24 hours, 0.1 µg/ml): 86.0 ± 4.72 µm/cell
- Number of Axis-cylinder Process ([1]; 24 hours, 0.1 µg/ml): 1.3 ± 0.04 per cell
- Number of Cells Formed with Axis-cylinder Process ([1]; 24 hours, 1 µg/ml): 157
- Ratio of Cells Formed with Axis-cylinder Process ([1]; 24 hours, 1 µg/ml): 51.0%
- Total Number of Cells ([1]; 24 hours, 1 µg/ml): 308
- Length of Axis-cylinder Process ([1]; 24 hours, 1 µg/ml): 97.6 ± 4.95 µm/cell
- Number of Axis-cylinder Process ([1]; 24 hours, 1 µg/ml): 1.4 ± 0.05 per cell
- Number of Cells Formed with Axis-cylinder Process ([1]; 24 hours, 10 µg/ml): 205
- Ratio of Cells Formed with Axis-cylinder Process ([1]; 24 hours, 10 µg/ml): 63.9%
- Total Number of Cells ([1]; 24 hours, 10 µg/ml): 321
- Length of Axis-cylinder Process ([1]; 24 hours, 10 µg/ml): 114.9 ± 5.98 µm/cell
- Number of Axis-cylinder Process ([1]; 24 hours, 10 µg/ml): 1.3 ± 0.06 per cell
- Number of Cells Formed with Axis-cylinder Process ([1]; 24 hours, 100 µg/ml): U.C.
- Total Number of Cells ([1]; 24 hours, 100 µg/ml): U.C.
- Length of Axis-cylinder Process ([1]; 24 hours, 100 µg/ml): U.C.
- Number of Axis-cylinder Process ([1]; 24 hours, 100 µg/ml): U.C.
- Number of Cells Formed with Axis-cylinder Process ([1]; 48 hours, 0.01 µg/ml): 158
- Ratio of Cells Formed with Axis-cylinder Process ([1]; 48 hours, 0.01 µg/ml): 42.6%
- Total Number of Cells ([1]; 48 hours, 0.01 µg/ml): 371
- Length of Axis-cylinder Process ([1]; 48 hours, 0.01 µg/ml): 100.4 ± 5.76 µm/cell
- Number of Axis-cylinder Process ([1]; 48 hours, 0.01 µg/ml): 1.5 ± 0.06 per cell
- Number of Cells Formed with Axis-cylinder Process ([1]; 48 hours, 0.1 µg/ml): 153
- Ratio of Cells Formed with Axis-cylinder Process ([1]; 48 hours, 0.1 µg/ml): 44.1%
- Total Number of Cells ([1]; 48 hours, 0.1 µg/ml): 347
- Length of Axis-cylinder Process ([1]; 48 hours, 0.1 µg/ml): 90.4 ± 6.06 µm/cell
- Number of Axis-cylinder Process ([1]; 48 hours, 0.1 µg/ml): 1.2 ± 0.04 per cell
- Number of Cells Formed with Axis-cylinder Process ([1]; 48 hours, 1 µg/ml): 182
- Ratio of Cells Formed with Axis-cylinder Process ([1]; 48 hours, 1 µg/ml): 47.4%
- Total Number of Cells ([1]; 48 hours, 1 µg/ml): 384
- Length of Axis-cylinder Process ([1]; 48 hours, 1 µg/ml): 106.5 ± 6.40 µm/cell
- Number of Axis-cylinder Process ([1]; 48 hours, 1 µg/ml): 1.3 ± 0.04 per cell
- Number of Cells Formed with Axis-cylinder Process ([1]; 48 hours, 10 µg/ml): 214
- Ratio of Cells Formed with Axis-cylinder Process ([1]; 48 hours, 10 µg/ml): 61.8%
- Total Number of Cells ([1]; 48 hours, 10 µg/ml): 346
- Length of Axis-cylinder Process ([1]; 48 hours, 10 µg/ml): 122.5 ± 6.99 µm/cell
- Number of Axis-cylinder Process ([1]; 48 hours, 10 µg/ml): 1.3 ± 0.04 per cell
- Number of Cells Formed with Axis-cylinder Process ([1]; 48 hours, 100 µg/ml): U.C.
- Total Number of Cells ([1]; 48 hours, 100 µg/ml): U.C.
- Length of Axis-cylinder Process ([1]; 48 hours, 100 µg/ml): U.C.
- Number of Axis-cylinder Process ([1]; 48 hours, 100 µg/ml): U.C.

Substance: Gal, (ßl-3) GalNAc (ßl-4) NAcNeu(α2-3))Gal(ßl-4)Glc(ßl-l)Ceramide [GM1]
- Average of Rotational Movement of Rats (Average + S.D.) ([2]; 2W after transplantation): 7.6+3.6
- Average of Rotational Movement of Rats (Average + S.D.) [2, 3]: 9.8+4.4
- Average of Rotational Movement of Rats (Average + S.D.) [2, 4]: 9.0+4.1
- Number of Rotational Movement of Rats ([2]; 2W after transplantation): 3.7 and 10.9 and 8.2
- Number of Rotational Movement of Rats [2, 3]: 14.8 and 6.9 and 7.6
- Number of Rotational Movement of Rats [2, 4]: 12.5 and 10.1 and 4.5
- Number of Cells Formed with Axis-cylinder Process ([1]; 24 hours, 0.01 µg/ml): 145
- Ratio of Cells Formed with Axis-cylinder Process ([1]; 24 hours, 0.01 µg/ml): 43.4%
- Total Number of Cells ([1]; 24 hours, 0.01 µg/ml): 334
- Length of Axis-cylinder Process ([1]; 24 hours, 0.01 µg/ml): 94.9 ± 6.64 µm/cell
- Number of Axis-cylinder Process ([1]; 24 hours, 0.01 µg/ml): 1.4 ± 0.05 per cell
- Number of Cells Formed with Axis-cylinder Process ([1]; 24 hours, 0.1 µg/ml): 142
- Ratio of Cells Formed with Axis-cylinder Process ([1]; 24 hours, 0.1 µg/ml): 47.8%
- Total Number of Cells ([1]; 24 hours, 0.1 µg/ml): 297
- Length of Axis-cylinder Process ([1]; 24 hours, 0.1 µg/ml): 101.1 ± 5.09 µm/cell
- Number of Axis-cylinder Process ([1]; 24 hours, 0.1 µg/ml): 1.4 ± 0.06 per cell
- Number of Cells Formed with Axis-cylinder Process ([1]; 24 hours, 1 µg/ml): 140
- Ratio of Cells Formed with Axis-cylinder Process ([1]; 24 hours, 1 µg/ml): 42.2%
- Total Number of Cells ([1]; 24 hours, 1 µg/ml): 332
- Length of Axis-cylinder Process ([1]; 24 hours, 1 µg/ml): 109.7 ± 6.44 µm/cell
- Number of Axis-cylinder Process ([1]; 24 hours, 1 µg/ml): 1.4 ± 0.06 per cell
- Number of Cells Formed with Axis-cylinder Process ([1]; 24 hours, 10 µg/ml): 149
- Ratio of Cells Formed with Axis-cylinder Process ([1]; 24 hours, 10 µg/ml): 45.8%
- Total Number of Cells ([1]; 24 hours, 10 µg/ml): 325
- Length of Axis-cylinder Process ([1]; 24 hours, 10 µg/ml): 89.3± 4.77 µm/cell
- Number of Axis-cylinder Process ([1]; 24 hours, 10 µg/ml): 1.4 ± 0.05 per cell
- Number of Cells Formed with Axis-cylinder Process ([1]; 24 hours, 100 µg/ml): 172
- Ratio of Cells Formed with Axis-cylinder Process ([1]; 24 hours, 100 µg/ml): 55.5%
- Total Number of Cells ([1]; 24 hours, 100 µg/ml): 310
- Length of Axis-cylinder Process ([1]; 24 hours, 100 µg/ml): 90.5 ± 3.88 µm/cell
- Number of Axis-cylinder Process ([1]; 24 hours, 100 µg/ml): 1.8 ± 0.05 per cell
- Number of Cells Formed with Axis-cylinder Process ([1]; 48 hours, 0.01 µg/ml): 194
- Ratio of Cells Formed with Axis-cylinder Process ([1]; 48 hours, 0.01 µg/ml): 58.3%
- Total Number of Cells ([1]; 48 hours, 0.01 µg/ml): 333
- Length of Axis-cylinder Process ([1]; 48 hours, 0.01 µg/ml): 93.7 ± 5.07 µm/cell
- Number of Axis-cylinder Process ([1]; 48 hours, 0.01 µg/ml): 1.4 ± 0.05 per cell
- Number of Cells Formed with Axis-cylinder Process ([1]; 48 hours, 0.1 µg/ml): 156
- Ratio of Cells Formed with Axis-cylinder Process ([1]; 48 hours, 0.1 µg/ml): 44.7%
- Total Number of Cells ([1]; 48 hours, 0.1 µg/ml): 349
- Length of Axis-cylinder Process ([1]; 48 hours, 0.1 µg/ml): 108.8 ± 5.97 µm/cell
- Number of Axis-cylinder Process ([1]; 48 hours, 0.1 µg/ml): 1.4 ± 0.06 per cell
- Number of Cells Formed with Axis-cylinder Process ([1]; 48 hours, 1 µg/ml): 211
- Ratio of Cells Formed with Axis-cylinder Process ([1]; 48 hours, 1 µg/ml): 59.9%
- Total Number of Cells ([1]; 48 hours, 1 µg/ml): 352
- Length of Axis-cylinder Process ([1]; 48 hours, 1 µg/ml): 109.2 ± 6.09 µm/cell
- Number of Axis-cylinder Process ([1]; 48 hours, 1 µg/ml): 1.3 ± 0.04 per cell
- Number of Cells Formed with Axis-cylinder Process ([1]; 48 hours, 10 µg/ml): 205
- Ratio of Cells Formed with Axis-cylinder Process ([1]; 48 hours, 10 µg/ml): 62.1%
- Total Number of Cells ([1]; 48 hours, 10 µg/ml): 330
- Length of Axis-cylinder Process ([1]; 48 hours, 10 µg/ml): 113.8 ± 5.49 µm/cell
- Number of Axis-cylinder Process ([1]; 48 hours, 10 µg/ml): 1.3 ± 0.04 per cell
- Number of Cells Formed with Axis-cylinder Process ([1]; 48 hours, 100 µg/ml): 193
- Ratio of Cells Formed with Axis-cylinder Process ([1]; 48 hours, 100 µg/ml): 60.9%
- Total Number of Cells ([1]; 48 hours, 100 µg/ml): 317
- Length of Axis-cylinder Process ([1]; 48 hours, 100 µg/ml): 98.9 ± 5.22 µm/cell
- Number of Axis-cylinder Process ([1]; 48 hours, 100 µg/ml): 1.5 ± 0.05 per cell
